Columns and labels:
EGFR Exon20NPG = EGFR Exon20NPG (Homo sapiens (Human), UniProt P00533, INS770NPG); assay: TR-FRET assay for ERBB kinases; type: biochemical; settings: geometric mean if measured more than once
In short: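 Compounds pre-incubated 10 min with kinase in HEPES pH 7.5 buffer (MgCl2, DTT, Pluronic), then reaction started with substrate mix (3 mM ATP, 30 µM fluorescein-poly-GluTyr, stock levels) for 10 min at room temperature. EDTA-quenched, detected by Tb-pY20 antibody TR-FRET (520/490 nm emission).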

EGFR L858R/T790M/C797S = EGFR L858R/T790M/C797S (Homo sapiens (Human), UniProt P00533, C797S/L858R/T790M); assay: TR-FRET assay for ERBB kinases; type: biochemical; settings: geometric mean if measured more than once
In short: (§1)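 Read-out is TR-FRET between a terbium anti-phosphotyrosine (pY20) antibody and phosphorylated fluorescein-labelled poly-GluTyr, excited at 340 nm with donor 490 nm and acceptor 520 nm emission. Phosphorylation ran 10 min at room temperature after a 10 min compound–enzyme pre-incubation. The substrate mix contained 3 mM ATP.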

EGFR L858R/T790M = EGFR L858R/T790M (Homo sapiens (Human), UniProt P00533, L858R/T790M); assay: TR-FRET assay for ERBB kinases; type: biochemical; settings: geometric mean if measured more than once
In short: as §1

EGFR WT = EGFR WT (Homo sapiens (Human), UniProt P00533); assay: TR-FRET assay for ERBB kinases; type: biochemical; settings: geometric mean if measured more than once
In short: as §1

[1] = biological target: EGFR L858R/T790M double mutant (H1975) (Homo sapiens (Human), UniProt P00533, L858R/T790M); assay: EGFR protein degradation assay (Western blot); type: cell-based; settings: 72 hours, 300 nM to 10 nM
Description: (§2) EGFR Protein Degradation assay
Cells expressing the appropriate form of EGFR were seeded in 6-well plates (300,000 cells per well) and allowed to adhere to the plate overnight. […] To harvest cells, media was removed and cells were washed once with ice-cold phosphate-buffered saline (PBS) prior to the addition of 400 μl lysis buffer (Cell Signaling Technology) supplemented with a protease inhibitor cocktail (Thermo Scientific). Cells were scraped from the plate and the cell lysate transferred to an Eppendorf tube and then clarified by a single spin at 10 000 rpm for 10 minutes. The protein concentration of each lysate was determined (BCA kit, Thermo Scientific) prior to the addition of loading buffer (Invitrogen) and reducing agent (Invitrogen). 10 μg protein of each lysate was loaded on an SDS/PAGE gel and run at 165V for 2 hours. Following transfer to a PVDF membrane (iBlot2, Thermo Fisher Scientific), the membrane was blocked in Tris-buffered saline containing 0.1% Tween-20 (TBS-T) and supplemented with 5% powdered milk for 1 hour. Membranes were then probed with EGFR and tubulin (loaded control) primary antibodies in TBS-T containing 3% bovine serum albumin (BSA) overnight at 4° C. Membranes were washed thrice with TBS-T before incubation with secondary antibody in TBS-T containing 3% bovine serum albumin (BSA) and incubated for 1 hour at room temperature. Following 3 further washes with TBS, membrane proteins of interest were detected by enzyme-linked chemiluminescence (ECL) using a Chemidoc (Bio-Rad).

[2] = biological target: EGFR L858R/T790M/C797S triple mutant (H520*) (Homo sapiens (Human), UniProt P00533, C797S/L858R/T790M); assay: EGFR protein degradation assay (Western blot); type: cell-based; settings: 72 hours, 300 nM to 10 nM
Description: as §2
Cells were incubated overnight at 37° C., 5% CO2 prior to compound addition. A 10 mM compound stock in DMSO was serially diluted in DMSO to provide the following stock concentrations: 1, 0.3, 0.1, 0.03 and 0.01 mM. An appropriate volume of each compound dilution, together with a DMSO vehicle control, was added to media to provide a 2× compound solution. […] At the end of the compound treatment, cells were washed once with ice-cold phosphate-buffered saline (PBS) and treated with lysis solution (1× lysis buffer, Cell Signaling Technologies (CST #9803) supplemented with Piarce™ protease inhibitors, #A32953, Thermo Fisher Scientific, TFS). Lysates were collected and clarified of cell debris by spinning at 10K rpm for 10 minutes. A specific volume of supernatant was retrieved for protein quantification (Pierce™ BCA kit, TFS #23225) and for Western analysis. Loading buffer supplemented with EDTA and reducing agent was added to each supernatant. A specific volume of supernatant (determined by protein assay: […] loaded per sample) was loaded into a NuPAGE™ 4-12% Bis-Tris gel (TFS). Samples were run at 165V in MOPS running buffer for 2 hours and then transferred to PVDF blotting membrane using a dry blotting system (iBlot2, TFS). Membranes were blocked in Tris-buffered saline supplemented with Tween, 0.1% (TBST) containing 5% non-fat dry milk, (AmericanBio). Following block, membranes were washed once with TBST. […] Membranes were washed 3× with TBST prior to addition of secondary antibody (1:10 000, anti-rabbit HRP-linked, CST #7074) in TBST with 3% BSA and then incubated at room temperature for one hour. Membranes were then washed 3× with TBS and signal developed by exposure to developer (SuperSignal West Femto, TFS) for 5 minutes. Membranes were then immediately imaged using a BioRad Chemidoc.

Sequence of EGFR Exon20NPG (P00533 other isoform, or with tags, fused parts or gaps del 1-694/ins NPG behind 770 limits assumed): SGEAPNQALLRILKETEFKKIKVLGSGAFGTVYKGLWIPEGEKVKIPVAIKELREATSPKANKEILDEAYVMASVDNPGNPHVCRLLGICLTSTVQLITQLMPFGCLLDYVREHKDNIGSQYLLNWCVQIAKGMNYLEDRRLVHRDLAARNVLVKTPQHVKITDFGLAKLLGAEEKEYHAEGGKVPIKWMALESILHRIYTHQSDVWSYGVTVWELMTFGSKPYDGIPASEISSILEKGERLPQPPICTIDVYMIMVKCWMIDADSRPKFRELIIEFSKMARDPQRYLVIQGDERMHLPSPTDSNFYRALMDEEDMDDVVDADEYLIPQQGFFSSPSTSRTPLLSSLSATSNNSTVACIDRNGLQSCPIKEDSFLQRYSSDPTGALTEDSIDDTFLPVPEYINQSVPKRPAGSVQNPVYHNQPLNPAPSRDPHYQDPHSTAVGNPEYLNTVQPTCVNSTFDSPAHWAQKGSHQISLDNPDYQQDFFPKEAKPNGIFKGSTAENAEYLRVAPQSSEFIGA
Sequence of EGFR WT (P00533 25-1210): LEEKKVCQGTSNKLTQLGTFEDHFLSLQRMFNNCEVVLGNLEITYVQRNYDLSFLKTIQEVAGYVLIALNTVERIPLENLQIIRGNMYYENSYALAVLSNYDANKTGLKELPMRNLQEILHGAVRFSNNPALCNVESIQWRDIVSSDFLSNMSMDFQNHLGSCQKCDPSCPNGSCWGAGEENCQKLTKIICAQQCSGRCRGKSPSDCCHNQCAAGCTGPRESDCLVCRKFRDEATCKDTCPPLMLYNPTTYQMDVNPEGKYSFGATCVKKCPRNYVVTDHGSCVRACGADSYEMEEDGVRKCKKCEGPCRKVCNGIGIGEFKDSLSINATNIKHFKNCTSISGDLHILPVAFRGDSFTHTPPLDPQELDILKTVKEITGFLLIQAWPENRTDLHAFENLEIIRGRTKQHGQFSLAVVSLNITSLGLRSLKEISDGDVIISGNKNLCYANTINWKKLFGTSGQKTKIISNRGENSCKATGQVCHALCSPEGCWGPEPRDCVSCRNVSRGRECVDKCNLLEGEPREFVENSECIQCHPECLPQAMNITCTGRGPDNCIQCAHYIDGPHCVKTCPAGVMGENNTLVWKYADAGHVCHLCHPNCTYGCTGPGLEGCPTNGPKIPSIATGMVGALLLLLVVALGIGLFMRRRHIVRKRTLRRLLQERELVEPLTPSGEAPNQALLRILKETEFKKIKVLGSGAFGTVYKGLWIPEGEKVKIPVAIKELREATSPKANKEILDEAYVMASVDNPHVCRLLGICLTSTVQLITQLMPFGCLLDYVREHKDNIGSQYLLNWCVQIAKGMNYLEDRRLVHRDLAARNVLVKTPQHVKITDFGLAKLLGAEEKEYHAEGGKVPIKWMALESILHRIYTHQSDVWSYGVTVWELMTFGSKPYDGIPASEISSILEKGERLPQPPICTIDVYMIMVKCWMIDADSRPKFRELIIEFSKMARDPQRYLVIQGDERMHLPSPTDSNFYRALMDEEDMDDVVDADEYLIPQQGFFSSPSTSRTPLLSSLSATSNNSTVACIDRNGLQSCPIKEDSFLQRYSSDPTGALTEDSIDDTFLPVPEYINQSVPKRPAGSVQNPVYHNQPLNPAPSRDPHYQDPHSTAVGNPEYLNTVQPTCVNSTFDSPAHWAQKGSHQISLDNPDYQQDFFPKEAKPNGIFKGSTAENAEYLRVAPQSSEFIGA
Sequence of EGFR L858R/T790M/C797S triple mutant (H520*) (P00533 25-1210 T790M/C797S/L858R): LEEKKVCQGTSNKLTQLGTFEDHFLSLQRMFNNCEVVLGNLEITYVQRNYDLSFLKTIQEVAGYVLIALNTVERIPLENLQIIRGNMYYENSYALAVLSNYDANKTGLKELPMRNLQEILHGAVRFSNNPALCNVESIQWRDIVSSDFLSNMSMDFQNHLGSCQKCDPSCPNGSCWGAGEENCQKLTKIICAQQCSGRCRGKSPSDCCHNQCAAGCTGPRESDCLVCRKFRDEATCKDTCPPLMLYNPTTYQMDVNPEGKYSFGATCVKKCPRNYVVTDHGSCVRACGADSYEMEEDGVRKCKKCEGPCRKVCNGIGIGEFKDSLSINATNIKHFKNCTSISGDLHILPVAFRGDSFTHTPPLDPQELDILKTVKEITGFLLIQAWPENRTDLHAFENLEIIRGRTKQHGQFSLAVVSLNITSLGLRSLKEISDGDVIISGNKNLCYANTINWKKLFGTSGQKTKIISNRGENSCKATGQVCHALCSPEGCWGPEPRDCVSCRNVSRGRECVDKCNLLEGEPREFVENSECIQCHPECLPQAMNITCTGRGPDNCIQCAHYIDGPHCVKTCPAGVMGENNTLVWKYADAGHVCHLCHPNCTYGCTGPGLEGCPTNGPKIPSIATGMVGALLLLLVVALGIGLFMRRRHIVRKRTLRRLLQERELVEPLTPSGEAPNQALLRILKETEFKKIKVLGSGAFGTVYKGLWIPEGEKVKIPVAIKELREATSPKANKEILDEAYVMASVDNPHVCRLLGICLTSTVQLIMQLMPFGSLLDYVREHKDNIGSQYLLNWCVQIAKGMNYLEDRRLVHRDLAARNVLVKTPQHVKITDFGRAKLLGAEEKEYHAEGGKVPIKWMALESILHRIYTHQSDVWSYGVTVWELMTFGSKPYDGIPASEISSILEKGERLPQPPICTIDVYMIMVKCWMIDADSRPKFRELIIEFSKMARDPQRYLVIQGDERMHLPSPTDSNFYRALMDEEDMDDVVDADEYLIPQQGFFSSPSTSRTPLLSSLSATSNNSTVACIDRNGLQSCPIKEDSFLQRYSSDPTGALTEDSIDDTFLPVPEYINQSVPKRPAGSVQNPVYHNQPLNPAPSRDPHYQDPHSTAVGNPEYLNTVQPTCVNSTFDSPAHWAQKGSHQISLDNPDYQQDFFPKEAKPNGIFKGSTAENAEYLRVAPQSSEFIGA
Sequence of EGFR L858R/T790M/C797S (P00533 25-1210 T790M/C797S/L858R): as above

| Structure (SMILES) | IC50 (EGFR Exon20NPG) [nM] | IC50 (EGFR L858R/T790M/C797S) [nM] | IC50 (EGFR L858R/T790M) [nM] | IC50 (EGFR WT) [nM] | EGFR protein remaining, EGFR L858R/T790M double mutant [1] | EGFR protein remaining, EGFR L858R/T790M/C797S triple mutant [2] |
| --- | --- | --- | --- | --- | --- | --- |
| Cc1ncsc1-c1ccc([C@H](C)NC(=O)[C@H]2C[C@H](O)CN2C(=O)[C@@H](NC(=O)COCCCC#Cc2cccc3c2C(=O)N(C(C(=O)Nc2nccs2)c2cc(F)ccc2O)C3)C(C)(C)C)cc1 (stereo partly drawn) [compound 92] | 3100 | 1100 | 6200 | 9800 | C (>80% EGFR protein remaining after 72 hours of incubation with the test compound at a concentration of 300 nM) | C (>80% EGFR protein remaining after 72 hours of incubation with the test compound at a concentration of 300 nM) |
| O=C1CCC(N2C(=O)c3ccc(OCCOCCOCC#Cc4cccc5c4C(=O)N([C@@H](C(=O)Nc4nccs4)c4cc(F)ccc4O)C5)cc3C2=O)C(=O)N1 (stereo partly drawn) [compound 261] | 4900 | 180 | 3500 | 2200 | C (>80% EGFR protein remaining after 72 hours of incubation with the test compound at a concentration of 300 nM) | C (>80% EGFR protein remaining after 72 hours of incubation with the test compound at a concentration of 300 nM) |
| Cc1ncsc1-c1ccc(CNC(=O)[C@@H]2C[C@@H](O)CN2C(=O)[C@@H](NC(=O)COCCOCCOCCOCCOCC#Cc2cccc3c2C(=O)N(C(C(=O)Nc2nccs2)c2cc(F)ccc2O)C3)C(C)(C)C)cc1 (stereo partly drawn) [compound 255] | 4700 | 140 | 830 | 580 | C (>80% EGFR protein remaining after 72 hours of incubation with the test compound at a concentration of 300 nM) | B (≤80% and >50% EGFR protein remaining after 72 hours of incubation with the test compound at a concentration between 300 nM and 10 nM) |
| O=C1CCC(N2C(=O)c3ccc(OCCOCCOCCOCCOCC#Cc4cccc5c4C(=O)N([C@@H](C(=O)Nc4nccs4)c4cc(F)ccc4O)C5)cc3C2=O)C(=O)N1 (stereo partly drawn) [compound 262] | 7400 | 250 | 430 | 3700 | C (>80% EGFR protein remaining after 72 hours of incubation with the test compound at a concentration of 300 nM) | C (>80% EGFR protein remaining after 72 hours of incubation with the test compound at a concentration of 300 nM) |
| Cc1ncsc1-c1ccc(CNC(=O)[C@@H]2C[C@@H](O)CN2C(=O)[C@H](C(C)C)N2Cc3ccccc3C2=O)c(OCCOCCOCC#Cc2cccc3c2C(=O)N([C@@H](C(=O)Nc2nccs2)c2cc(F)ccc2O)C3)c1 (single isomer, unassigned) [Example 256] | 6100 | 1400 | 14000 | 2500 | C (>80% EGFR protein remaining after 72 hours of incubation with the test compound at a concentration of 300 nM) | C (>80% EGFR protein remaining after 72 hours of incubation with the test compound at a concentration of 300 nM) |

— US10994015B2, “EGFR proteolysis targeting chimeric molecules and associated methods of use” (Arvinas Operations, Inc., priority 2016, dated 2021)
